Data as given in PMC8615111, “Phenolic Thiazoles with Antioxidant and Antiradical Activity. Synthesis, In Vitro Evaluation, Toxicity, Electrochemical Behavior, Quantum Studies and Antimicrobial Screening” (Antioxidants, 2021).
Read-outs that look alike come from different tables or passages of the source.

Assays:
[1] = ABTS˙^+ radical scavenging assay; format: biochemical; settings: for IC50: ABTS˙^+ scavenging
Protocol: The assay was based on the decolorization of green (2,2′-azinobis-(3-ethylbenzothiazoline-6-sulfonic acid) ABTS˙^+ to ABTS, on the principle reported by Re et al. and was carried out according to our previously published research.
Later, 1950 µL of ABTS˙^+ reagent was added to all cuvettes and they were shaken for well over 10 min in the dark at room temperature. The absorbance of the resulted solutions found in cuvettes was determined spectrophotometrically at λ = 734 nm. The ABTS scavenging activity of the compounds was calculated using the following Equation (1):(1) ABTS scavenging (%)=control absorbance−sample absorbance/control absorbance×100

[2] = DPPH˙ radical scavenging assay; format: biochemical; settings: for IC50: DPPH˙ scavenging
Protocol: The 2,2-diphenyl-1-picrylhydrazyl (DPPH˙) radical scavenging assay is based on the transfer of one hydrogen from the analyzed compound to the violet radical DPPH˙. This will convert it to a yellow compound, the change in absorbance being proportional to the amount of DPPH˙ neutralized, according to Brand-Williams et al..
The preparation of the DPPH˙ reagent was previously reported by our group. […] Over the previous quantities, DMSO was added until a total volume of 50 µL was obtained in all cuvettes, and 1950 µL of DPPH˙ solution was added to all cuvettes; then, they were shaken for well over 10 min in the dark at room temperature. The absorbances of the solutions were measured at λ = 517 nm. The DPPH˙ radical scavenging activity of evaluated compounds was calculated using Equation (2):(2) DPPH scavenging (%)=control absorbance−sample absorbance/control absorbance×100

[3] = NO˙ radical scavenging assay (Griess reaction); format: biochemical; settings: 100 µL of test solution 1 mg/mL in DMSO, 150 min, pH 7.4
Protocol: Scavenging of the NO˙ radical was performed according to some adapted protocols reported in the literature, based on the nitroprusside decomposition at physiological pH and colorimetric quantification of the resulted products using the Griess reaction.
Over 200 µL of 10 mM sodium nitroprusside, 100 µL of test solutions (1 mg/mL in DMSO), and 400 µL phosphate-buffered saline (PBS, pH = 7.4) were added. The mixture was then incubated at room temperature for 150 min on a rotating shaker (GFL Gesellschaft für Labortechnik, Burgwedel, Germany). After that, 1 mL of sulfanilic acid 0.33% in 20% acetic acid was added and after 5 min, 1 mL of naphthylethylenediamine […] 0.1% was added to all test tubes. After 30 min, the absorbance of the sample, given by the chromophore (azo dye) formed during the diazotization of nitrite ions resulting from decomposition of sodium nitroprusside with sulfanilic acid and coupled with naphthylethylenediamine, was measured at 546 nm. The NO˙ radical scavenging activity of the tested compounds was calculated using Equation (3):(3) NO˙ scavenging (%)=control absorbance−sample absorbance/control absorbance×100

[4] = Fe^2+ chelation assay; format: biochemical
Protocol: The protocol used for assessing Fe^2+ chelating capacity of the compounds was adapted from a report of Benzie and Strain and previously reported by our group. The iron(II) chelation ability of compounds was calculated using Equation (7):(7) iron chelation (%)=control absorbance−sample absorbance/control absorbance×100
The chelating potential for the ferrous ions of the new compounds was determined, based on their competition for Fe^2+ with ferrozine.

[5] = Cu^2+ chelation assay; format: biochemical
[6] = tested on: C. albicans ATCC 102310; assay: Antifungal activity, modified microdilution; format: cell-based; settings: Candida albicans, ATCC102310
Protocol: For evaluating the antimicrobial activity of the compounds, […] aerobic microbial strains were used: S. aureus ATCC 25923, S. pyogenes ATCC 19615, P. aeruginosa ATCC 27853, S. enterica ISM 83/37, S. typhimurium ATCC 14028, E. coli ATCC 8739, E. coli ATCC 25922, and C. albicans ATCC 102310 obtained from Food Biotechnology Laboratory, Life Sciences Institute, University of Agricultural Sciences, and Veterinary Medicine Cluj Napoca, where the experiment was performed. The antimicrobial activity of the compounds was determined using a modified microdilution technique, and the followed protocol was previously reported.
The antimicrobial activity of the final compounds, against seven aerobic microbial strains (S. aureus ATCC 25923, S. pyogenes ATCC 19615, P. aeruginosa ATCC 27853, S. enterica ISM 83/37, S. typhimurium ATCC 14028, E. coli ATCC 8739, E. coli ATCC 25922), and a fungal strain (C. albicans ATCC 102310), was determined using a modified microdilution technique.
The results of the antimicrobial activity evaluation of the compounds, in comparison to norfloxacin and chloramphenicol used as standard antibiotics and fluconazole used as reference antifungal, are depicted in Table 10.

[7] = tested on: HaCaT cells; assay: Cytotoxicity determination, MTT method; format: cell-based; settings: Homo sapiens, HaCaT cells, MTT, 24 h
Protocol: To determine the cytotoxic action of the obtained compounds 5[…], and 8a-b, a normal human keratinocytes cell line was used (HaCaT keratinocytes, CLS-300493, Eppelheim, Germany). HaCaT cells were cultured in Dulbecco's Modified Eagle Media (DMEM) supplemented with 1% L-glutamine, 1% penicillin-streptomycin, and 5% fetal bovine serum. At 80% confluence, the cells were transferred to 96 well plates at a confluence of 12×10^3 cells/well and left to attach for 24 h at 37°C and 5% CO2 in a humidified atmosphere. […] After 24 h, the culture media was replaced with 100 μL of MTT solution at a final concentration of 5 μg/mL/well and left to interact with the cells for 2 h in the incubator. After this, the MTT solution was replaced with 100 μL of isopropanol, left to dissolve the formazan crystals for 5 min, and read at 550 and 630 nm using a BioTek Epoch plate reader (BioTek Instruments, Winooski, VT, USA) and Gen5 software (version 1.09).

[8] = C. albicans ATCC 102310, read-out: MIC

SMILES	% of ABTS˙^+ Scavenged ([1]; 0.5 µg/mL)	% of ABTS˙^+ Scavenged ([1]; 0.75 µg/mL)	% of ABTS˙^+ Scavenged ([1]; 1 µg/mL)	% of ABTS˙^+ Scavenged ([1]; 1.5 µg/mL)	% of ABTS˙^+ Scavenged ([1]; 2.5 µg/mL)	IC50 [1]	% of DPPH˙ Scavenged ([2]; 1 µg/mL)	% of DPPH˙ Scavenged ([2]; 1.5 µg/mL)	% of DPPH˙ Scavenged ([2]; 2 µg/mL)	% of DPPH˙ Scavenged ([2]; 3 µg/mL)	% of NO˙ Scavenged [3]	Chelation Capacity (%), ferrous ions ([4]; 150 µg/mL)	Chelation Capacity (%), ferrous ions ([4]; 200 µg/mL)	Chelation Capacity (%), cupric ions ([5]; 3.36 µg/mL)	Chelation Capacity (%), cupric ions ([5]; 6.72 µg/mL)	Chelation Capacity (%), cupric ions ([5]; 10.08 µg/mL)	Chelation Capacity (%), cupric ions ([5]; 13.44 µg/mL)	Chelation Capacity (%), cupric ions ([5]; 16.80 µg/mL)	IC50 ([7]; read-out: IC50)	IC50 ([7]; read-out: IC50 (µg/mL))	other results
Cc1csc(N/N=C/c2ccc(O)cc2O)n1.Cl [Compound 5b, (E)-2-(2,4-dihydroxybenzylidene)-1-(4-methylthiazol-2-yl)hydrazin-1-ium chloride]	35.55%	41.10%	48.40%	66.50%	98.09%	1.00 µg/mL	16.46%	24.42%	34.44%	52.10%	35.63%	18.42%	31.33%	11.58%	15.60%	22.76%	28.99%	34.10%	176 µM	50.3 µg/mL	% of DPPH˙ Scavenged ([2]; 5 µg/mL): 87.08%; IC50 [2]: 2.90 µg/mL; Chelation Capacity (%), ferrous ions ([4]; 50 µg/mL): 1.18%; Chelation Capacity (%), ferrous ions ([4]; 100 µg/mL): 8.95%; MIC [6, 8]: > 100 µg/mL
C/C(=N\Nc1nc(-c2ccc(O)c(O)c2)cs1)c1ccc(O)cc1O.Cl [Compound 8a, (E)-2-(1-(2,4-dihydroxyphenyl)ethylidene)-1-(4-(3,4-dihydroxyphenyl)thiazol-2-yl)hydrazin-1-ium chloride]	25.40%	33.32%	41.07%	58.72%	90.97%	1.25 µg/mL	25.05%	31.43%	36.02%	47.13%	32.72%	17.60%	22.64%	11.13%	17.02%	25.14%	34.16%	38.91%	113 µM	44.6 µg/mL	% of DPPH˙ Scavenged ([2]; 5 µg/mL): 68.90%; IC50 [2]: 3.26 µg/mL; Chelation Capacity (%), ferrous ions ([4]; 50 µg/mL): 7.73%; Chelation Capacity (%), ferrous ions ([4]; 100 µg/mL): 12.28%; MIC [6, 8]: > 100 µg/mL
C/C(=N\Nc1nc(C)cs1)c1ccc(O)cc1O [Compound 5a, Dihydroxy-Phenyl-Thiazol-Hydrazinium chloride]	–	–	–	–	–	–	–	–	–	–	36.26%	11.17%	21.69%	10.74%	14.51%	20.10%	28.62%	33.67%	102 µM	30.7 µg/mL	MIC [6]: > 100 µg/mL
Br.C/C(=N\Nc1nc(-c2ccc(O)c(C(N)=O)c2)cs1)c1ccc(O)cc1O [Compound 7a, (E)-1-(4-(3-carbamoyl-4-hydroxyphenyl)thiazol-2-yl)-2-(1-(2,4-dihydroxyphenyl)ethylidene)hydrazin-1-ium bromide]	11.62%	17.29%	22.69%	30.78%	49.37%	2.52 µg/mL	20.01%	22.10%	26.75%	32.43%	21.44%	2.29%	3.88%	8.76%	16.70%	26.63%	34.35%	38.88%	75.5 µM	35.1 µg/mL	% of DPPH˙ Scavenged ([2]; 5 µg/mL): 49.27%; IC50 [2]: 5.19 µg/mL; Chelation Capacity (%), ferrous ions ([4]; 50 µg/mL): 0.07%; Chelation Capacity (%), ferrous ions ([4]; 100 µg/mL): 1.73%; MIC [6]: > 100 µg/mL
Br.NC(=O)c1cc(-c2csc(N/N=C/c3ccc(O)cc3O)n2)ccc1O [Compound 7b, (E)-1-(4-(3-carbamoyl-4-hydroxyphenyl)thiazol-2-yl)-2-(2,4-dihydroxybenzylidene) hydrazin-1-ium bromide]	25.42%	30.15%	36.50%	49.20%	69.53%	1.60 µg/mL	24.01%	26.00%	30.41%	35.81%	26.33%	9.13%	16.28%	7.23%	11.41%	14.46%	19.40%	22.72%	93.9 µM	42.4 µg/mL	% of DPPH˙ Scavenged ([2]; 5 µg/mL): 51.80%; IC50 [2]: 4.84 µg/mL; Chelation Capacity (%), ferrous ions ([4]; 50 µg/mL): 0.07%; Chelation Capacity (%), ferrous ions ([4]; 100 µg/mL): 3.44%; MIC [6]: > 100 µg/mL
